Test results published in publication PMC11638965, “Leveraging Dual-Ligase Recruitment to Enhance Protein Degradation via a Heterotrivalent Proteolysis Targeting Chimera” (Journal of the American Chemical Society, 2024).
Where two headings read alike, the source gives them in different places.

Legend:
BRD4 = BRD4 (Homo sapiens, UniProt O60885); experiment: Live cell kinetic HiBiT degradation assay, HiBiT-BRD4 HEK293 cells (parental, CRBN KO, VHL KO); format: cell-based; conditions: for fold drop in BRD4 degradation potency (Dmax 50) when CRBN recruitment was outcompeted by pomalidomide: 20 μM pomalidomide vs vehicle, HiBiT-BRD4 HEK293 cells; for EC50: HiBiT-BRD4 CRISPR knock-in HEK293 cells, live cell kinetic degradation, 24 h, read-out: Dmax 50 BRD4
Method: (§1) HEK293 HiBiT-BRD2 (LgBiT stable), HEK293 HiBiT-BRD3 (LgBiT stable), and HEK293 HiBiT-BRD4 (LgBiT stable) were created using CRISPR/Cas9 to insert at HiBiT tag at the N-terminal genomic loci of BRD2, BRD3, or BRD4 in a cell line stably expressing LgBiT protein as described previously.[23]
(§2) For kinetic degradation experiments, HEK293 HiBiT-BRD2, 3, or 4 (LgBiT stable) cells and HEK293 HiBiT-BRD4 (LgBiT) CRBN KO and VHL KO cells were plated at 20,000 cells/well in DMEM +10% FBS in white 96-well tissue culture plates and allowed to adhere overnight. The next day, media was removed and 90 μL of prewarmed CO2-independent medium (Gibco) containing Endurazine (Promega) at a 1:100 dilution from stock was added. Plates were incubated at 37 °C for 3 h to allow luminescence to equilibrate. A threefold dilution series of each PROTAC at 10x the desired final concentration was prepared (with the amount of DMSO in each treatment condition kept constant). After luminescence equilibration, a preread luminescence measurement was taken (prior to compound addition) to allow for baseline normalization to account for possible plating differences. Cells were then treated with 10 μL of the prepared PROTAC dilution series (in triplicate or quadruplicate). Treated plates were placed in a GloMax Discover luminometer (Promega) prewarmed to 37 °C and luminescence measurements were obtained every 7 min for 24 h. Kinetic degradation plots were obtained by first normalizing time course luminescence readings in each well to the preread measurement, then to the average value of the DMSO only control at each time point. Data was analyzed using GraphPad Prism (version 8) and excel. Dmax values were identified as the lowest luminescence reading in each well. Rate constant values were calculated using a one phase exponential decay Y = (Y0-Plateau) e(K*^X) + Plateau using Prism (Y0 constrained to 1). Dmax 50 values were calculated by plotting Dmax as a function of concentration, then fitting plots using the following equation: [drawing 1] to determine IC50.
HiBiT-BRD4 (LgBiT stable) HEK293 cells (Promega) were used to generate both VHL KO HiBiT-BRD4 (LgBiT stable) and CRBN KO HiBiT-BRD4 (LgBiT stable) cell lines. For VHL, gRNAs targeting exon 1 ([…]) and exon 2 ([…]) and for CRBN, gRNAs targeting exon 3 ([…]) and exon 6 ([…]) were purchased from IDT DNA (Table 5). For each gRNA, tracrRNA/crRNA duplexes were formed by combining 10 μL of 100 μM Alt-R […] (IDT), 100 μM Alt-R crRNA (IDT) and heating at 95C for 5 min, then were allowed to cool to room temp for 20 min. RNPs were then formed by combining 75 pmol Cas9 (IDT) with 2.4 μL total of prepared tracrRNA/crRNA complex (1.2 μL for each gRNA targeting each exon). Cells were then trypsinized and resuspended at 10,000,000 cells/mL in 1 mL of Mirus Ingenio electroporation solution. Three μL of 100 μM electroporation enhancer (Mirus) was added, along with 3 μL of RNP solution. Cells were electroporated in 2 mm cuvettes using a BioRad system (190 V, 950 μF, infinite resistance) and were then plated in a T75 flask in full growth medium to allow for recovery. After recovery from electroporation, knockout pools were sorted for single cells in 96-well tissue culture treated plates. Clonal populations which expanded from single cells were then screened for loss of function of VHL by treating with MZ1, or loss of function of CRBN by treating with dBET6, using a HiBiT-BRD4 luminescent readout assay. Genomic DNA isolated from candidate clones was then PCR-amplified (Table of primers below), Gibson-assembled into a pF1A plasmid backbone, transformed into E. coli., and then Sanger sequenced to confirm presence of indels in the targeted exons. […] VHL exon 3 carried a 19 bp deletion on one allele, and a 1 bp insertion on the other allele, both occurring after the premature stop codon in exon 1.

RKO CRBN KO cells = experiment: Cell viability assay (CellTiter-Glo); format: cell-based, human
Method: (§3) RKO WT, VHL KO, CRBN KO and CRBN/VHL dKO cells were cultured in Dulbecco’s modified Eagle’s medium supplemented with 10% FCS and 1% penicillin–streptomycin. RKO CRBN KO and VHL KO were generated previously.[45] RKO CRBN/VHL dKO cells were generated by transiently expressing pSpCas9(BB)-2A-GFP (PX458) (Addgene 48138) loaded with a short guide RNA (sgRNA) targeting VHL (Fwd: […], Rev: […]) in RKO CRBN KO cells. Clones were single cell seeded and checked for VHL and CRBN double deletion via Western blot or PCR on genomic DNA (gDNA).
(§4) Cells were seeded in 96-well plates at a cell density of 3750 cells per well and treated for 3 days with DMSO or drug at ten √10 serial diluted concentrations. Starting concentration for all drugs was 10 μM, and each treatment was performed in biological triplicates. Cell viability was assessed using the CellTiter-Glo assay (CellTiter-Glo Luminescent Cell Viability Assay, Promega G7573) according to manufacturer instructions. Luminescence signal was measured on a Multilabel Plate Reader Platform Victor X3 model 2030 (PerkinElmer). Survival curves and EC50 values were determined using GraphPad Prism v.10.0.3 by fitting a nonlinear regression to the log10-transformed drug concentration and the relative viability after normalization of each data point to the mean luminescence of the lowest drug concentration.

RKO CRBN/VHL dKO cells = experiment: Cell viability assay (CellTiter-Glo); format: cell-based, human; conditions: read-out: EC50 RKO CRBN/VHL dKO
Method: as §3, §4

RKO VHL KO cells = experiment: Cell viability assay (CellTiter-Glo); format: cell-based, human
Method: as §3, §4

BRD3 = target: T1, BRD3 (Homo sapiens, UniProt Q15059); experiment: Live cell kinetic HiBiT degradation assay, HiBiT-BRD3 HEK293 cells; format: cell-based; conditions: HiBiT-BRD3 CRISPR knock-in HEK293 cells, live cell kinetic degradation, 24 h; read-out: Dmax 50 BRD3
T1 construct: HiBiT, is appended to the N-terminus of endogenous BRD2, BRD3, and BRD4; endogenous in cells
T1 sequence (Q15059 whole entry): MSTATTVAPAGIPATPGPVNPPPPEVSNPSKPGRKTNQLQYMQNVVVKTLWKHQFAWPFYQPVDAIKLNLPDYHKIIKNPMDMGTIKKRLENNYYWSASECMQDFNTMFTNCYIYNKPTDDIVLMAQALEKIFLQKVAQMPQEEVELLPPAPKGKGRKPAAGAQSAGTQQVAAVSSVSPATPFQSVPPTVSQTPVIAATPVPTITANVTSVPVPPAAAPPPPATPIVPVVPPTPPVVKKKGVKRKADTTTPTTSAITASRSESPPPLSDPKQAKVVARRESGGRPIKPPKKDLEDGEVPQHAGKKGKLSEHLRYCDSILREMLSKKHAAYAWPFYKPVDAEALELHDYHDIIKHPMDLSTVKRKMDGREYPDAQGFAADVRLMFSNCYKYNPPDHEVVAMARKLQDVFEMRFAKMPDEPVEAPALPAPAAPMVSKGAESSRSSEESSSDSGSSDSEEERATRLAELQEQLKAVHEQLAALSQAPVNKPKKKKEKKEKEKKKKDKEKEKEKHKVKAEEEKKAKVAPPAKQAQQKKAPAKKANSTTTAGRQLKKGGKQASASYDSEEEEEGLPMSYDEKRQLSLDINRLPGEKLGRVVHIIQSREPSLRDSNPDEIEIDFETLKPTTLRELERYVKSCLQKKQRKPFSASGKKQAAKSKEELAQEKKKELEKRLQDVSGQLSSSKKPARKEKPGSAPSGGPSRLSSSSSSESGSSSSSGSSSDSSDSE
Method: as §1, §2

RKO WT cells = experiment: cells; format: cell-based, human
Method: as §3
as §4, with “Starting concentration for all drugs was 10 μM, and each treatment was performed in biological triplicates.” left out

BRD2 = target: T2, BRD2 (Homo sapiens, UniProt P25440); experiment: Live cell kinetic HiBiT degradation assay, HiBiT-BRD2 HEK293 cells; format: cell-based; conditions: HiBiT-BRD2 CRISPR knock-in HEK293 cells, live cell kinetic degradation, 24 h; read-out: Dmax 50 BRD2
T2 construct: HiBiT, is appended to the N-terminus of endogenous BRD2, BRD3, and BRD4; endogenous in cells
T2 sequence (P25440 whole entry): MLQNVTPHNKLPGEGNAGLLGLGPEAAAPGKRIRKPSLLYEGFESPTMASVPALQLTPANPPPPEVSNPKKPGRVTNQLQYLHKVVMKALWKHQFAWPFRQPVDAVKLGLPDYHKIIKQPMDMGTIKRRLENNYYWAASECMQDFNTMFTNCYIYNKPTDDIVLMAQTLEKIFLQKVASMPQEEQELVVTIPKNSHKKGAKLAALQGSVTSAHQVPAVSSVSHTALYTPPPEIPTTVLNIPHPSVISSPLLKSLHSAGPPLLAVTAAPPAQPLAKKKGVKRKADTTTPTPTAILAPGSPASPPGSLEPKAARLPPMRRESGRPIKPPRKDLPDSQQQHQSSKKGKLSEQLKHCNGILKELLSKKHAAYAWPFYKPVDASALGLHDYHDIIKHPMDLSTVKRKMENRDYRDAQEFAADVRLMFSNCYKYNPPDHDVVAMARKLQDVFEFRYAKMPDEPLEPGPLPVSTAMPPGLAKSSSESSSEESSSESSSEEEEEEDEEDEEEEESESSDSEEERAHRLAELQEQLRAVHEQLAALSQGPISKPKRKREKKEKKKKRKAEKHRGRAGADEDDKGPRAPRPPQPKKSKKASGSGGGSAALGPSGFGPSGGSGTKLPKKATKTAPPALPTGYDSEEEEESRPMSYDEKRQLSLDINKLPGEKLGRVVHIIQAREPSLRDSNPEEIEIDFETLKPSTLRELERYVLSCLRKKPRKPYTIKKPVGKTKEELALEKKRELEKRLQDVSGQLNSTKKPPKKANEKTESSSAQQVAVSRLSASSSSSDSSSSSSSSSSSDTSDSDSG
Method: as §1, §2

KBM7 cells = experiment: Cell viability assay (CellTiter-Glo); format: cell-based, human; conditions: WT KBM7, 5.12 pM to 10 uM, n = 3 (Table S4)
Method: as §4, with “[…],” for “3750 cells per well and treated for 3 days with DMSO or drug at ten √10 serial diluted concentrations. Starting concentration for all drugs was 10 μM,”

K562 cells = experiment: Cell viability assay (CellTiter-Glo); format: cell-based, human; conditions: WT K562, 5.12 pM to 10 uM, n = 3 (Table S4)
Method: as §4, with “[…],” for “3750 cells per well and treated for 3 days with DMSO or drug at ten √10 serial diluted concentrations. Starting concentration for all drugs was 10 μM,”

[1] = Homo sapiens, 72 h, 316 pM to 10 μM, 3 days, n = 6 (Figure 3C, Table S1)
[2] = Homo sapiens, 72 h, 316 pM to 10 μM, 3 days, n = 6 (Figure 3C, Table S1), read-out: EC50 RKO WT

fold drop in BRD4 degradation potency (Dmax 50) when CRBN recruitment was outcompeted by pomalidomide (BRD4) [fold] | EC50 (BRD4) [nM] | DC50 (BRD3) [nM] | EC50 (RKO WT cells; [2]) [nM] | DC50 (BRD2) [nM] | Compound | EC50 (RKO CRBN KO cells; [1]) [nM] | EC50 (RKO CRBN/VHL dKO cells; [1]) [nM] | EC50 (RKO VHL KO cells; [1]) [nM] | also measured
5.3 | 37 | 23 | 720 | 84 | Cc1ncsc1-c1ccc(CNC(=O)[C@@H]2C[C@@H](O)CN2C(=O)[C@@H](NC(=O)COCC(C)(COCCOCCOCCNC(=O)C[C@@H]2N=C(c3ccc(Cl)cc3)c3c(sc(C)c3C)-n3c(C)nnc32)COCCOCCOCCNc2cccc3c2C(=O)N(C2CCC(=O)NC2=O)C3=O)C(C)(C)C)cc1 (stereo partly drawn) [MN666 (1), (2S,4R)-1-((20S)-20-(tert-Butyl)-1-((S)-4-(4-chlorophenyl)-2,3,9-trimethyl-6H-thieno[3,2-f][1,2,4]triazolo[4,3-a][1,4]diazepin-6-yl)-14-((2-(2-(2-((2-(2,6-dioxopiperidin-3-yl)-1,3-dioxoisoindolin-4-yl)amino)ethoxy)ethoxy)ethoxy)methyl)-14-methyl-2,18-dioxo-6,9,12,16-tetraoxa-3,19-diazahenicosan-21-oyl)-4-hydroxy-N-(4-(4-methylthiazol-5-yl)benzyl)pyrrolidine-2-carboxamide] | 703 | 1580 | 336 | –
3.6 | 55 | 21 | 489 | 156 | Cc1ncsc1-c1ccc(CNC(=O)[C@@H]2C[C@@H](O)CN2C(=O)[C@@H](NC(=O)COCC(C)(COCCOCCNC(=O)C[C@@H]2N=C(c3ccc(Cl)cc3)c3c(sc(C)c3C)-n3c(C)nnc32)COCCOCCNc2cccc3c2C(=O)N(C2CCC(=O)NC2=O)C3=O)C(C)(C)C)cc1 (stereo partly drawn) [MN675 (2), (2S,4R)-1-((17S)-17-(tert-Butyl)-1-((S)-4-(4-chlorophenyl)-2,3,9-trimethyl-6H-thieno[3,2-f][1,2,4]triazolo[4,3-a][1,4]diazepin-6-yl)-11-((2-(2-((2-(2,6-dioxopiperidin-3-yl)-1,3-dioxoisoindolin-4-yl)amino)ethoxy)ethoxy)methyl)-11-methyl-2,15-dioxo-6,9,13-trioxa-3,16-diazaoctadecan-18-oyl)-4-hydroxy-N-(4-(4-methylthiazol-5-yl)benzyl)pyrrolidine-2-carboxamide] | 601 | 2060 | 870 | EC50 (KBM7 cells; Homo sapiens, KBM-7): 175 nM; EC50 (K562 cells; Homo sapiens): 327 nM; EC50 (RKO WT cells; Homo sapiens, WT RKO, 316 pM to 10 μM, n = 3 (Table S4), read-out: EC50 RKO): 445 nM
– | – | – | – | – | Cc1sc2c(c1C)C(c1ccc(Cl)cc1)=N[C@@H](CC(=O)NCCCCCCCCNC(=O)COc1cccc3c1C(=O)N(C1CCC(=O)NC1=O)C3=O)c1nnc(C)n1-2 (some centres unmarked) [dBET6, reference compound] | – | – | – | EC50 (KBM7 cells): 3.7 nM; EC50 (K562 cells): 6.4 nM; EC50 (RKO CRBN KO cells; Figure 10 experiment): > 10000 nM; EC50 (RKO CRBN/VHL dKO cells; both VHL and CRBN knocked out (Figure 3C)): > 10000 nM; EC50 (RKO VHL KO cells; 316 pM to 10 μM, 3 days, n = 6 (Figure 3C, Table S1)): 233 nM; EC50 (RKO VHL KO cells; 500 pM to 10 μM, 3 days (Figure 10, Table S6)): 291 nM; EC50 (RKO WT cells; 316 pM to 10 μM, 3 days, n = 6 (Figure 3C, Table S1), read-out: EC50 RKO WT): 281 nM; EC50 (RKO WT cells; 500 pM to 10 μM, 3 days (Figure 10, Table S6), read-out: EC50 RKO WT): 256 nM; EC50 (RKO WT cells; RKO WT, 316 pM to 10 μM, n = 6, combination: dBET6 and MZ1 each from 5 μM (Table S7), read-out: EC50 RKO): 106 nM; EC50 (RKO WT cells; WT RKO, 316 pM to 10 μM, n = 3 (Table S4), read-out: EC50 RKO): 272 nM
